From patent US11389438B2 (CHDI Foundation, Inc., priority 2019, dated 2022) come the findings set out here.

Test [1] has as its target pre-formed polyQ46 or Exon1-polyQ46 aggregates (mHTT) (Homo sapiens, UniProt P42858, INS38QQQQQQQQQQQQQQQQQQQQQQQQQ). Briefly: Q46_RBA radioligand binding assay (displacement of [3H]-radioligand). As for the experimental part: Binding of W to mHTT. A radioligand binding assay was developed to screen for compounds which can efficiently displace a radioligand detailed elsewhere (see, e.g., U.S. Patent Publication No. from US 2017/0292150) pre-formed polyQ46 or Exon1-polyQ46 aggregates (Q46_RBA).
Aggregation of polyQ peptides is initiated by cleavage of the tag from a GST-polyQ46 or from a MBP-Exon1-polyQ46 fusion protein. The pre-formed aggregates are then incubated with compounds which compete with the [^3H]-radiolabelled ligand for binding to the aggregates. The readout is a scintillation based MicroBeta measurement of radioligand bound to aggregates. The activity was indicated as: +++, <100 nM; ++, 100-500 nM, +, >500 nM.

Test [2] has as its target VHL complex (VHL, Elongin B, Elongin C, Cul2, Rbx1) (Homo sapiens (Human), UniProt P40337). Briefly: VHL SPR assay. Format: binding. From the text: Surface Plasmon Resonance (SPR) assays have been developed to test the affinity (KD) of VHL or CRBN-based compounds to respective recombinant ligase complex/domain.
The assays are based on surface plasmon resonance (SPR), which enables to measure the changes of the local refractive index due to changes of molecular mass on a gold chip surface in the case of a binding event and in a flowing system. To detect binding between both partners, the respective E3 ligase is immobilized to the chip surface, while the test compounds are flown over the chip surface at a steady velocity. The detected changes in the RU response are indicative of the binding event and are concentration dependent.
These tags provide the anchor for the capturing process to either an NTA or Streptavidin coated chip surface (immobilization level of 3,000-5,000 RU). Because of the rather complex structure of the VHL complex, it was additionally coupled to the chip surface by amino coupling to prevent any protein loss by disruption of the complex in the flowing system.
To detect binding of compounds and extract dissociation constants KD for the tested compounds to the immobilized E3 ligase, concentration response curves of the compounds were recorded. Compounds were usually tested in 10-pt dilutions up to 20 μM final concentration in assay buffer and were flown over the chip at 30 μL/min. The contact time for each cycle includes 90 s for association and 200 s for dissociation of compounds.
In the following tables, the Kd values are indicated as: +++, <100 nM; ++, 100-500 nM, +, >500 nM.
In general terms: SPR reads the build-up and loss of mass on a sensor chip optically.

Setting [3] is: immobilized VHL complex, read-out: VHL SPR Kd.

Like-named read-outs stand apart in the source and are kept apart here.

Chain of VHL complex (VHL, Elongin B, Elongin C, Cul2, Rbx1) (P40337 whole entry, looked up): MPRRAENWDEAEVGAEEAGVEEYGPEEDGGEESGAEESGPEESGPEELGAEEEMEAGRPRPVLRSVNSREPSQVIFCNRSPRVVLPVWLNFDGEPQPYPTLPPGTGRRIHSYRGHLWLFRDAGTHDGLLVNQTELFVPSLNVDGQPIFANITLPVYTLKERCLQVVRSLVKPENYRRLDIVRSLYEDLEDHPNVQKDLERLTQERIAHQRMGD
Chain of VHL complex (VHL, Elongin B, Elongin C, Cul2, Rbx1) (Q15370 whole entry partner, looked up): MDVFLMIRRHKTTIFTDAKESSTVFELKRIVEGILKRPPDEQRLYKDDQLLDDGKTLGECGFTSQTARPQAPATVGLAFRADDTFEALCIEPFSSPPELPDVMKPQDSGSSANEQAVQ
Chain of VHL complex (VHL, Elongin B, Elongin C, Cul2, Rbx1) (Q15369 whole entry partner, looked up): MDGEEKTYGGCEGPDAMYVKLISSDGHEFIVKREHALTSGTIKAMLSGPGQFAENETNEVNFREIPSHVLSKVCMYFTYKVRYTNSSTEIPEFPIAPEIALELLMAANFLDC
Chain of VHL complex (VHL, Elongin B, Elongin C, Cul2, Rbx1) (Q13617 whole entry partner, looked up): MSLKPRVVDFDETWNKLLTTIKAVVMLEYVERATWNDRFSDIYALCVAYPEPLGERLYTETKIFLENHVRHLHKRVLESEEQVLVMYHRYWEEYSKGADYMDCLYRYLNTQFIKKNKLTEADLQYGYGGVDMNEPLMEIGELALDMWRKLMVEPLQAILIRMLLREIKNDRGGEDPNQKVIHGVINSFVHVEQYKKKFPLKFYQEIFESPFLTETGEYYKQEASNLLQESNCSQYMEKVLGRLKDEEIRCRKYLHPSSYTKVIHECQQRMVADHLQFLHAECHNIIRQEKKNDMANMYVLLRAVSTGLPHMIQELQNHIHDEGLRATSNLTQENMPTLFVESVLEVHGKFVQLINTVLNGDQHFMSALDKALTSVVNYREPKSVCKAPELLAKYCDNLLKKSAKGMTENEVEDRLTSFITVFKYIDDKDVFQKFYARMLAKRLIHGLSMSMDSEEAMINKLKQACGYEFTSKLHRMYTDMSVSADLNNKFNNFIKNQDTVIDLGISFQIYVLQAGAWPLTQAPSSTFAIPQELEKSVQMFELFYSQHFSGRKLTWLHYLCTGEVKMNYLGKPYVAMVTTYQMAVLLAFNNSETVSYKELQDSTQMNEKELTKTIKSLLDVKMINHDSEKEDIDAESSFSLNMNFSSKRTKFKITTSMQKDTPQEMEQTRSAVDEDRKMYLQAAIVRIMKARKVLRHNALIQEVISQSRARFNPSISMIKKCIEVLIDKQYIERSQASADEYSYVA
Chain of VHL complex (VHL, Elongin B, Elongin C, Cul2, Rbx1) (P62877 whole entry partner, looked up): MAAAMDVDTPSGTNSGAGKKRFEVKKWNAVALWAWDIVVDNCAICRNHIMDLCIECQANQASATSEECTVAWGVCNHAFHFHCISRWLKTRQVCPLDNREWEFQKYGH

In test [1], `CNc1c(-c2cn3c(n2)sc2cc(OCCOCCOCC(=O)N[C@H](C(=O)N4C[C@H](O)C[C@H]4C(=O)NCc4ccc(-c5scnc5C)cc4)C(C)(C)C)ccc23)nc2cc(C#N)ccn12` [Compound 2] displayed an IC50 of less than 100 nM. The Kd in test [2] (setting [3]) lay within 100 to 500 nM.

On to `CNc1c(-c2cn3c(n2)sc2cc(OCCOCCOCCOCC(=O)N[C@H](C(=O)N4C[C@H](O)C[C@H]4C(=O)NCc4ccc(-c5scnc5C)cc4)C(C)(C)C)ccc23)nc2cc(C#N)ccn12` [Compound 3], for which, in test [1], the IC50 was less than 100 nM. Moreover, the dissociation constant (Kd) in test [2] (setting [3]) fell in the range of 100 to 500 nM. In the same order, the values of `Cc1ncsc1-c1ccc(CNC(=O)[C@H]2C[C@H](O)CN2C(=O)[C@@H](C(C)C)N2Cc3ccccc3C2=O)c(OCCOCCOCCOCCOc2ccc(C(=O)Nc3ccc4oc(-c5ccc(=O)n(C)n5)nc4c3)nc2)c1` [Compound 11] are less than 100 nM and more than 500 nM. The matching figures for `Cc1ncsc1-c1ccc(CNC(=O)[C@@H]2C[C@@H](O)CN2C(=O)[C@H](C(C)C)N2Cc3ccccc3C2=O)c(OCCOCCOCCOCCOc2ccc(C(=O)Nc3ccc4oc(-c5ccc(=O)n(C)n5)nc4c3)nc2)c1` [Compound 20, 5-{2-[2-(2-{2-[2-({[(2S,4R)-4-Hydroxy-1-[(2S)-3-methyl-2-(1-oxo-2,3-dihydro-1H-isoindol-2-yl)butanoyl]pyrrolidin-2-yl]formamido}methyl)-5-(4-methyl-1,3-thiazol-5-yl)phenoxy]ethoxy}ethoxy)ethoxy]ethoxy}-N-[2-(1-methyl-6-oxo-1,6-dihydropyridazin-3-yl)-1,3-benzoxazol-5-yl]pyridine-2-carboxamide]: less than 100 nM and 100 to 500 nM. The matching figures for `Cc1ncsc1-c1ccc(CNC(=O)[C@@H]2C[C@@H](O)CN2C(=O)[C@@H](NC(=O)CCOCCOc2ccc(C(=O)Nc3ccc4oc(-c5ccc(=O)n(C)n5)nc4c3)nc2)C(C)(C)C)cc1` [Compound 21]: less than 100 nM and 100 to 500 nM.

Take `Cc1ncsc1-c1ccc(CNC(=O)[C@@H]2C[C@@H](O)CN2C(=O)[C@@H](NC(=O)CCOCCOCCOc2ccc(C(=O)Nc3ccc4oc(-c5ccc(=O)n(C)n5)nc4c3)nc2)C(C)(C)C)cc1` [Compound 22, 5-{2-[2-(2-{[(2S)-1-[(2S,4R)-4-Hydroxy-2-({[4-(4-methyl-1,3-thiazol-5-yl)phenyl]methyl}carbamoyl)pyrrolidin-1-yl]-3,3-dimethyl-1-oxobutan-2-yl]carbamoyl}ethoxy)ethoxy]ethoxy}-N-[2-(1-methyl-6-oxo-1,6-dihydropyridazin-3-yl)-1,3-benzoxazol-5-yl]pyridine-2-carboxamide]: the IC50 in test [1] is less than 100 nM. The Kd in test [2] (setting [3]) is less than 100 nM. `Cc1ncsc1-c1ccc(CNC(=O)[C@@H]2C[C@@H](O)CN2C(=O)[C@@H](NC(=O)CCOCCOCCOCCOc2ccc(C(=O)Nc3ccc4oc(-c5ccc(=O)n(C)n5)nc4c3)nc2)C(C)(C)C)cc1` [Compound 23] had an IC50 in test [1] of less than 100 nM. Besides, the Kd in test [2] (setting [3]) was less than 100 nM. As to `Cc1ncsc1-c1ccc(CNC(=O)[C@@H]2C[C@@H](O)CN2C(=O)[C@@H](NC(=O)CCOCCOCCOCCOCCOCCOc2ccc(C(=O)Nc3ccc4oc(-c5ccc(=O)n(C)n5)nc4c3)nc2)C(C)(C)C)cc1` [Compound 24], the concentration for half-maximal inhibition (IC50) in test [1] was less than 100 nM. Moreover, in test [2] (setting [3]), the Kd is less than 100 nM. In test [1], `Cc1ncsc1-c1ccc(CNC(=O)[C@@H]2C[C@@H](O)CN2C(=O)[C@@H](NC(=O)CCOCCOCCOCCOCCOCCOCCOCCOCCOc2ccc(C(=O)Nc3ccc4oc(-c5ccc(=O)n(C)n5)nc4c3)nc2)C(C)(C)C)cc1` [Compound 25] returned an IC50 of 100 to 500 nM. This compound yielded a Kd in test [2] of 100 to 500 nM. Compound `Cc1ncsc1-c1ccc(CNC(=O)[C@@H]2C[C@@H](O)CN2C(=O)[C@H](C(C)C)N2Cc3ccccc3C2=O)c(OCCOc2ccc(COc3ccc4oc(-c5ccc(=O)n(C)n5)nc4c3)nc2)c1` [Compound 43, (2S,4R)-4-hydroxy-1-((S)-3-methyl-2-(1-oxoisoindolin-2-yl)butan-oyl)-N-(2-(2-((6-(((2-(1-methyl-6-oxo-1,6-dihydropyridazin-3-yl)benzo[d]oxazol-5-yl)oxy)methyl)pyridin-3-yl)oxy)ethoxy)-4-(4-methylthiazol-5-yl)benzyl)pyrrolidine-2-carboxamide] returned an IC50 in test [1] of less than 100 nM. Moreover, the Kd in test [2] (setting [3]) is more than 500 nM. The matching figures for `Cc1ncsc1-c1ccc(CNC(=O)[C@@H]2C[C@@H](O)CN2C(=O)[C@H](C(C)C)N2Cc3ccccc3C2=O)c(OCCOCCOc2ccc(COc3ccc4oc(-c5ccc(=O)n(C)n5)nc4c3)nc2)c1` [Compound 44]: 100 to 500 nM and more than 500 nM.

As to `Cc1ncsc1-c1ccc(CNC(=O)[C@@H]2C[C@@H](O)CN2C(=O)[C@H](C(C)C)N2Cc3ccccc3C2=O)c(OCCOCCOCCOc2ccc(COc3ccc4oc(-c5ccc(=O)n(C)n5)nc4c3)nc2)c1` [Compound 45], the 50% inhibitory concentration (IC50) in test [1] was 100 to 500 nM. Moreover, in test [2] (setting [3]), the Kd is more than 500 nM. `Cc1ncsc1-c1ccc(CNC(=O)[C@@H]2C[C@@H](O)CN2C(=O)[C@H](C(C)C)N2Cc3ccccc3C2=O)c(OCCOCCOCCOCCOc2ccc(COc3ccc4oc(-c5ccc(=O)n(C)n5)nc4c3)nc2)c1` [Compound 46] returned an IC50 in test [1] of 101 nM. For the same compound, in test [2] (setting [3]), the equilibrium dissociation constant (Kd) is more than 500 nM. The matching figures for `Cc1ncsc1-c1ccc(CNC(=O)[C@@H]2C[C@@H](O)CN2C(=O)[C@@H](NC(=O)COCCOCCOc2ccc(COc3ccc4oc(-c5ccc(=O)n(C)n5)nc4c3)nc2)C(C)(C)C)cc1` [Compound 47, (2S,4R)-1-[(2S)-3,3-Dimethyl-2-{2-[2-(2-{[6-({[2-(1-methyl-6-oxo-1,6-dihydropyridazin-3-yl)-1,3-benzoxazol-5-yl]oxy}methyl)pyridin-3-yl]oxy}ethoxy)ethoxy]acetamido}butanoyl]-4-hydroxy-N-{[4-(4-methyl-1,3-thiazol-5-yl)phenyl]methyl}pyrrolidine-2-carboxamide]: less than 100 nM and 100 to 500 nM.

In turn, `Cc1ncsc1-c1ccc(CNC(=O)[C@H]2C[C@H](O)CN2C(=O)[C@H](NC(=O)COCCOCCOc2ccc(COc3ccc4oc(-c5ccc(=O)n(C)n5)nc4c3)nc2)C(C)(C)C)cc1` [Compound 48] showed an IC50 in test [1] of less than 100 nM. Further, the Kd in test [2] (setting [3]) is more than 500 nM. `Cc1ncsc1-c1ccc(CNC(=O)[C@@H]2C[C@@H](O)CN2C(=O)[C@@H](NC(=O)COCCOCCOCCOc2ccc(COc3ccc4oc(N5CCNCC5)nc4c3)nc2)C(C)(C)C)cc1` [Compound 53, (2S,4R)-1-((S)-2-(tert-butyl)-4-oxo-14-((6-(((2-(piperazin-1-yl)benzo-[d]oxazol-5-yl)oxy)methyl)pyridin-3-yl)oxy)-6,9,12-trioxa-3-azatetradecanoyl)-4-hydroxy-N-(4-(4-methylthiazol-5-yl)benzyl)pyrrolidine-2-carboxamide] showed a half-inhibitory concentration (IC50) in test [1] of more than 500 nM. Besides, in test [2] (setting [3]), the Kd lay within 100 to 500 nM. In the same order, the values of `Cc1ncsc1-c1ccc(CNC(=O)[C@@H]2C[C@@H](O)CN2C(=O)[C@@H](NC(=O)COCCOCCOCCOCCOc2ccc(COc3ccc4oc(N5CCNCC5)nc4c3)nc2)C(C)(C)C)cc1` [Compound 54] are more than 500 nM and more than 500 nM. Turning to `COc1ccc(NC(=O)c2ccnc(N(CCOCCOCCNC(=O)[C@H](CC(C)C)NC(=O)[C@@H](O)[C@H](N)Cc3ccccc3)c3ccccc3)n2)cn1` [Compound 69], the IC50 in test [1] was more than 500 nM.

A word on the IC50: it is the concentration that gives 50% inhibition. Higher therefore signals a need for much substance. Broadly, the Kd is a measure of binding affinity in units of concentration.
